Test results from patent US20240239848A1, “HOLOTHURIAN-DERIVED ACTIVE PEPTIDE WITH IMMUNE ACTIVITY, PREPARATION METHOD AND APPLICATION THEREOF” (BOHAI UNIVERSITY, priority 2023, published 2024).
No end group written: not given here.

What was measured:
Format in all cases: cell-based, mouse
macrophage RAW264.7 = test: Survival rate of macrophages RAW264.7 (CCK-8 method); conditions: RAW264.7, synthetic peptide 50-200 μg/mL, 24 h
Protocol: Blank group: Macrophages RAW264.7 are inoculated into 96-well plates and cultured for 24 h.
Sample group: synthetic peptides with different concentrations (50-200 μg/mL) are used for treating for 24 h.
The CCK-8 method is used to measure the absorbance values of different components, and the survival rate of macrophage RAW264.7 is calculated according to the absorbance values.

[1] = test system: macrophage RAW264.7 induced by LPS; test: NO release from macrophage RAW264.7 induced by LPS (NO kit)
Protocol: (2) Influence of Synthetic Peptide on NO Release from Macrophage RAW264.7 Induced by LPS
(§1) Blank group: macrophage RAW264.7 cells are inoculated into a 96-well plate and cultured for 24 h.
Induced injury group: after cell culture, cells in blank group are treated with 100 ng/ml LPS for 24 h, and then treated with synthetic peptides with different concentrations (50-200 μg/mL) for 24 h.
(§2) Negative control group: after cell culture in blank group, cells are treated with 100 ng/mL LPS for 24 h.
The NO release amount of different components is measured by NO kit. After 24 hours of treatment with synthetic peptides with different concentrations, the NO release amount of macrophage RAW264.7 induced by LPS is shown in FIG. 3.

IL-1β = IL-1β secretion of macrophage RAW264.7 induced by LPS (ELISA); conditions: LPS-induced RAW264.7, peptide 200 μg/mL
Protocol: (§3) (2) Influence of IIENAVQ on the secretion of cytokines (IL-1β, TNF-α) of macrophage RAW264.7 induced by LPS
as §1
(§4) Induced injury group: after the cells in the blank group are cultured, the cells are treated with 100 ng/mL LPS for 24 h, and then treated with different concentrations (50-200 μg/mL) of IIENAVQ for 24 h.
as §2
(§5) The cytokines of different components are determined by ELISA kit.
(§6) The final detection results of (1) and (2) are illustrated in FIG. 4A and FIG. 4B.

TNF-α = TNF-α secretion of macrophage RAW264.7 induced by LPS (ELISA); conditions: LPS-induced RAW264.7, peptide 200 μg/mL
Protocol: as §3, §1, §4, §2, §5, §6

Substance: IIENAVQ [IIENAVQ]
- cell survival rate (macrophage RAW264.7): 116.88%
- release of NO from macrophages RAW264.7 induced by LPS, compared with LPS-negative control group ([1]; 100 ng/mL LPS 24 h, then peptide 50-200 μg/mL 24 h): significantly reduces
- final concentration of NO ([1]; LPS-induced RAW264.7, peptide 200 μg/mL): 27.99 ± 0.33 µmol/L
- inhibition rate of IL-1β secretion (IL-1β): 51.54%
- secretion of cytokine IL-1β (IL-1β): 28.73 ± 1.12 pg/mL
- inhibition rate of TNF-α secretion (TNF-α): 60.24%
- secretion of cytokine TNF-α (TNF-α): 70.78 ± 5.55 pg/mL
